Source: patent publication US20230014181A1, “CULTURE SYSTEM AND METHODS FOR IMPROVED MODELING OF NEUROLOGICAL CONDITIONS” (Genentech, Inc., priority 2021, published 2023)
Where two headings read alike, the source gives them in different places.

Experiments:
[1] = system: human iPSC neurons and astrocytes treated with 5 μM sAβ42s; test: Focused small molecule screen, double culture (neuron, astrocyte), rescue from sAβ42s toxicity, high content imaging; assay type: cell-based; conditions: double culture, 5 μM sAβ42s; for percent rescue from sAβ42s toxicity at 6.25 µM / percent rescue from sAβ42s toxicity at 12.5 µM / percent rescue from sAβ42s toxicity at 25 µM / percent rescue from sAβ42s toxicity at 50 µM: Homo sapiens, iPSC
Protocol: (§1) FIGS. 11A-11D show synapse % rescue versus MAP2% rescue (FIGS. 11A-11B) and beta III tubulin % rescue versus MAP2% rescue (FIGS. 11C-11D), in neurons and astrocytes (FIGS. 11A and 11C) or neurons, astrocytes, and microglia (FIGS. 11B and 11D) treated with 5 μM sAβ42s and small molecules from a focused screen of known neuroprotective agents at multiple concentrations (50 μM, 25 μM, 12.5 μM and 6.25 μM (double culture), 50 μM, 12.5 μM, 3.1 μM and 0.78 μM (triple culture). Small molecules that prevented toxicity in dendrites (MAP2), synapses (Synapsin 1/2), cell count (CUX2), or axons ([…]) at or above 30% were considered hits (red dotted line).
Neurons from both NSC lines were evaluated by immunofluorescence staining. Briefly, cells were fixed with 4% PFA and 4% sucrose at room temperature for 20 minutes using Bravo automation. Fixed cells were then washed 2 times with PBS using Biotek 406 microplate washer (Beckman Coulter), followed by permeabilization and blocking by incubation with a solution containing 1×PBS, 0.1% Triton X-100, 2% donkey serum, and 1% BSA at room temperature for 30 minutes. Blocking solution was removed and cells were incubated with primary antibodies in blocking solution overnight at 4° C. After washing 6 times with PBS on Biotek 406 cell plate washer (Beckman Coulter), cells were then incubated with fluorophore-conjugated secondary antibodies for 1 hour at room temperature in the dark to avoid photobleaching. Cells were then washed 6 more times in with PBS before imaging. Fluorescent images were captured using IN Cell 6000 confocal microscope (GE Healthcare Life Sciences). The image analysis was performed with IN Cell 6000 analysis software.
Prior to experimentation, media volume in wells containing neurons was equalized with liquid handling automation (Bravo) in order to ensure precise control of concentrations. All Aβ42 oligomers, anti-Aβ, small molecules, inflammatory cytokines were prepared at 10× concentration and added to Neuronal Culture Media at an appropriate volume. For the repeated dosing experiments, the media were refreshed 50% at each dosing first, before adding Aβ42 oligomers, and/or anti-Aβ antibody at the specified final concentration.
(§2) In double (neuron, astrocyte) and triple (neuron, astrocyte, microglia) cultures, each small molecule listed in Table 1 was tested in the AD model paradigm at up to four concentrations. Molecules that characterized ≥30% rescue in any of the four measurements of dendrites area (MAP2), synapses count (synapsin 1/2), or cell count (CUX2), or axon area (Beta III Tubulin; “BT3”)) were classified as hits (FIGS. 11A-11D, Table 2, and Table 3).

[2] = system: human iPSC neurons, astrocytes and microglia treated with 5 μM sAβ42s; test: Focused small molecule screen, triple culture (neuron, astrocyte, microglia), rescue from sAβ42s toxicity; assay type: cell-based; conditions: for percent rescue from sAβ42s toxicity at 0.78 µM / percent rescue from sAβ42s toxicity at 3.13 µM / percent rescue from sAβ42s toxicity at 12.5 µM / percent rescue from sAβ42s toxicity at 50 µM: Homo sapiens, iPSC
Protocol: as §1
Frozen cells were thawed and immediately seeded at a density of 8,000 cells/well of a 384-well plate onto 8-week old neuron-astrocyte co-culture in Microglia media (BrainPhys™ neuronal media (Stem Cell Technologies) supplemented with 1× B27 with vitamin A, 1×N2 Plus Media Supplement (R&D Systems), 20 ng/mL BDNF, 20 ng/mL GDNF, 1 mM creatine, 200 nM L-ascorbic acid, 1 μg/mL mouse laminin, 0.5 mM GlutaMAX™ (Thermofisher), 0.5× penicillin-streptomycin, 1× normocin, 5 ng/mL TGF-β, 100 ng/mL human IL-34, 1.5 μg/mL cholesterol, 1 ng/mL gondoic acid, 100 ng/mL oleic acid, 460 μM thioglycerol, 1× insulin-transferrin-selenium, 25 ng/mL rhM-CSF, 5.4 μg/mL human insulin solution).
as §2

[3] = 6.25 μM compound, read-out: % B3T rescue
[4] = 6.25 μM compound, read-out: % Cux2 rescue
[5] = 6.25 μM compound, read-out: % MAP2 rescue
[6] = 6.25 μM compound, read-out: % Synapse rescue
[7] = 12.5 μM compound, read-out: % B3T rescue
[8] = 12.5 μM compound, read-out: % Cux2 rescue
[9] = 12.5 μM compound, read-out: % MAP2 rescue
[10] = 12.5 μM compound, read-out: % Synapse rescue
[11] = 25 μM compound, read-out: % B3T rescue
[12] = 25 μM compound, read-out: % Cux2 rescue
[13] = 25 μM compound, read-out: % MAP2 rescue
[14] = 25 μM compound, read-out: % Synapse rescue
[15] = 50 μM compound, read-out: % B3T rescue
[16] = 50 μM compound, read-out: % Cux2 rescue
[17] = 50 μM compound, read-out: % MAP2 rescue
[18] = 50 μM compound, read-out: % Synapse rescue
[19] = 50.00 μM compound, read-out: % B3T rescue
[20] = 50.00 μM compound, read-out: % MAP2 rescue
[21] = 50.00 μM compound, read-out: % Synapse rescue

CN1CCN(CCOc2cc(OC3CCOCC3)c3c(Nc4c(Cl)ccc5c4OCO5)ncnc3c2)CC1 [Saracatinib (AZD0530), Saracatinib]
percent rescue from sAβ42s toxicity at 6.25 µM [1, 3]: 62% | percent rescue from sAβ42s toxicity at 6.25 µM [1, 4]: 7% | percent rescue from sAβ42s toxicity at 6.25 µM [1, 5]: 61% | percent rescue from sAβ42s toxicity at 6.25 µM [1, 6]: 32% | percent rescue from sAβ42s toxicity at 12.5 µM [1, 7]: 56% | percent rescue from sAβ42s toxicity at 12.5 µM [1, 8]: 13% | percent rescue from sAβ42s toxicity at 12.5 µM [1, 9]: 71% | percent rescue from sAβ42s toxicity at 12.5 µM [1, 10]: 34% | percent rescue from sAβ42s toxicity at 25 µM [1, 11]: 30% | percent rescue from sAβ42s toxicity at 25 µM [1, 12]: 18% | percent rescue from sAβ42s toxicity at 25 µM [1, 13]: 65% | percent rescue from sAβ42s toxicity at 25 µM [1, 14]: 10% | percent rescue from sAβ42s toxicity at 0.78 µM ([2]; 0.78 μM compound, read-out: % B3T rescue): 99% | percent rescue from sAβ42s toxicity at 0.78 µM ([2]; 0.78 μM compound, read-out: % MAP2 rescue): 72% | percent rescue from sAβ42s toxicity at 0.78 µM ([2]; 0.78 μM compound, read-out: % Synapse rescue): 65% | percent rescue from sAβ42s toxicity at 3.13 µM ([2]; 3.13 μM compound, read-out: % B3T rescue): 99% | percent rescue from sAβ42s toxicity at 3.13 µM ([2]; 3.13 μM compound, read-out: % MAP2 rescue): 73% | percent rescue from sAβ42s toxicity at 3.13 µM ([2]; 3.13 μM compound, read-out: % Synapse rescue): 65% | percent rescue from sAβ42s toxicity at 12.5 µM ([2]; 12.50 μM compound, read-out: % B3T rescue): 35% | percent rescue from sAβ42s toxicity at 12.5 µM ([2]; 12.50 μM compound, read-out: % MAP2 rescue): -12% | percent rescue from sAβ42s toxicity at 12.5 µM ([2]; 12.50 μM compound, read-out: % Synapse rescue): -2%

CCCC[C@@H](C=O)NC(=O)[C@H](CC(C)C)NC(=O)OCc1ccccc1 [Calpeptin]
percent rescue from sAβ42s toxicity at 6.25 µM [1, 3]: 9% | percent rescue from sAβ42s toxicity at 6.25 µM [1, 4]: 70% | percent rescue from sAβ42s toxicity at 6.25 µM [1, 5]: 22% | percent rescue from sAβ42s toxicity at 6.25 µM [1, 6]: 6% | percent rescue from sAβ42s toxicity at 12.5 µM [1, 7]: 4% | percent rescue from sAβ42s toxicity at 12.5 µM [1, 8]: 79% | percent rescue from sAβ42s toxicity at 12.5 µM [1, 9]: 27% | percent rescue from sAβ42s toxicity at 12.5 µM [1, 10]: 11% | percent rescue from sAβ42s toxicity at 25 µM [1, 11]: 7% | percent rescue from sAβ42s toxicity at 25 µM [1, 12]: 91% | percent rescue from sAβ42s toxicity at 25 µM [1, 13]: 39% | percent rescue from sAβ42s toxicity at 25 µM [1, 14]: 9% | percent rescue from sAβ42s toxicity at 50 µM [1, 15]: 20% | percent rescue from sAβ42s toxicity at 50 µM [1, 16]: 96% | percent rescue from sAβ42s toxicity at 50 µM [1, 17]: 36% | percent rescue from sAβ42s toxicity at 50 µM [1, 18]: 15% | percent rescue from sAβ42s toxicity at 50 µM [2, 19]: 66% | percent rescue from sAβ42s toxicity at 50 µM [2, 20]: 34% | percent rescue from sAβ42s toxicity at 50 µM [2, 21]: 34%

O=C1Nc2ccc3ncsc3c2/C1=C/Nc1ccc(S(=O)(=O)Nc2ccccn2)cc1 [GW8510]
% B3T rescue ([1]; 6.25 μM compound): 32% | % Cux2 rescue ([1]; 6.25 μM compound): −1% | % MAP2 rescue ([1]; 6.25 μM compound): 48% | % Synapse rescue ([1]; 6.25 μM compound): 52% | % B3T rescue ([1]; 12.5 μM compound): 20% | % Cux2 rescue ([1]; 12.5 μM compound): 16% | % MAP2 rescue ([1]; 12.5 μM compound): 37% | % Synapse rescue ([1]; 12.5 μM compound): 38% | % B3T rescue ([1]; 25 μM compound): 31% | % Cux2 rescue ([1]; 25 μM compound): −18% | % MAP2 rescue ([1]; 25 μM compound): 37% | % Synapse rescue ([1]; 25 μM compound): 38% | % B3T rescue ([1]; 50 μM compound): 47% | % Cux2 rescue ([1]; 50 μM compound): −22% | % MAP2 rescue ([1]; 50 μM compound): 52% | % Synapse rescue ([1]; 50 μM compound): 49% | % B3T rescue ([2]; 0.78 μM compound): 45% | % MAP2 rescue ([2]; 0.78 μM compound): −4% | % Synapse rescue ([2]; 0.78 μM compound): 8% | % B3T rescue ([2]; 3.13 μM compound): 70% | % MAP2 rescue ([2]; 3.13 μM compound): 15% | % Synapse rescue ([2]; 3.13 μM compound): 25% | % B3T rescue ([2]; 12.50 μM compound): 68% | % MAP2 rescue ([2]; 12.50 μM compound): 28% | % Synapse rescue ([2]; 12.50 μM compound): 32% | % B3T rescue ([2]; 50.00 μM compound): 63% | % MAP2 rescue ([2]; 50.00 μM compound): −8% | % Synapse rescue ([2]; 50.00 μM compound): −15%

O=c1cc(-c2ccc(O)c(O)c2)oc2cc(O)cc(O)c12 [Luteolin]
percent rescue from sAβ42s toxicity at 25 µM [1, 11]: 29% | percent rescue from sAβ42s toxicity at 25 µM [1, 12]: 12% | percent rescue from sAβ42s toxicity at 25 µM [1, 13]: 26% | percent rescue from sAβ42s toxicity at 25 µM [1, 14]: 13% | percent rescue from sAβ42s toxicity at 50 µM [1, 15]: 66% | percent rescue from sAβ42s toxicity at 50 µM [1, 16]: 19% | percent rescue from sAβ42s toxicity at 50 µM [1, 17]: 55% | percent rescue from sAβ42s toxicity at 50 µM [1, 18]: 37% | percent rescue from sAβ42s toxicity at 50 µM [2, 19]: 91% | percent rescue from sAβ42s toxicity at 50 µM [2, 20]: 73% | percent rescue from sAβ42s toxicity at 50 µM [2, 21]: 75%
